The subject of one experiment is HeLa. The experiment is described as follows: Cytotoxic activity against human HeLa cells by MTT method. It is filed as functional, cell-based.
Experiment [1] is described as follows: Cytotoxic activity against human Bel7402 cells by MTT method. To be noted: Bel-7402. A general note: Formazan colour is commonly taken as a measure of viable cells.
Another experiment has as its system HEK293. The experiment can be described thus: Cytotoxic activity against human HEK293 cells by SRB method. It is filed as cell-based.
Experiment [2] can be described thus: Cytotoxic activity against human HCT116 cells by SRB method. To be noted: HCT-116. It is filed as functional, cell-based. (The SRB assay estimates cell density from bound dye.)
The test system of the next experiment is A549. The experiment can be described thus: Cytotoxic activity against human A549 cells by SRB method.

pIC50: −log10 of the molar value. Where only a bound is given, the exact number is not on record here.

`CO[C@]12CCCC[C@H]1[C@H]1O[C@H](C)[C@@H](C)c3c(O)c(O)cc(c31)O2`: the negative-log IC50 (pIC50) was 5.34 with HeLa; 4.98 in experiment [1]; 5.17 in the experiment with HEK293; 5.25 in experiment [2]; 5.12 in the experiment on A549.
Turning to `COc1cccc2c1C(=O)c1c(O)c3c(c(O)c1C2=O)C[C@@](O)(C(=O)CO)C[C@@H]3O[C@H]1C[C@H](N)[C@H](O)[C@H](C)O1` [DOXORUBICIN], the negative logarithm of the IC50 (pIC50) in the experiment with HeLa was 6.30; in the experiment with HEK293, 7.40; in experiment [2], 6.70.
As to `CO[C@H]1CCc2oc(=O)c3c(O)cc(C)cc3c21`, the pIC50 with HeLa was 4.90; in experiment [1], 4.39; in the experiment with HEK293 it was 4.50; in experiment [2], 4.65; in the experiment on A549 it was 4.97.
Turning to `COC(=O)c1ccc2c(=O)c3cc(O)cc(C(=O)O)c3oc2c1O`, the pIC50 was 5.00 in the experiment on HeLa; 4.51 in experiment [1]; 4.55 with HEK293; 4.72 in experiment [2]; 4.77 in the experiment on A549.
As to `CO[C@@]1(C)C[C@H]2O[C@H](C)[C@@H](C)c3c(C)c(O)cc(c32)O1`, the negative logarithm of the IC50 (pIC50) in the experiment on HeLa was 4.45; in experiment [1] it was less than 4.30; with HEK293, 4.37; in experiment [2] it was less than 4.30; in the experiment with A549 it was less than 4.30.
Consider `CO[C@]1(C)C[C@H]2O[C@H](C)[C@@H](C)c3c(C)c(O)cc(c32)O1`, for which the negative-log IC50 (pIC50) was 4.35 in the experiment with HeLa; 4.33 in experiment [1]; 4.49 in the experiment on HEK293; less than 4.30 in experiment [2]; less than 4.30 in the experiment with A549.
Take `Cc1c(O)c(O)c(Oc2cc(O)c(C)c3c2C(=O)O[C@H](C)[C@H]3C)c2c1[C@H](C)[C@@H](C)O2`: the pIC50 in the experiment on HeLa is 5.47; in experiment [1], 5.15; in the experiment on HEK293, 5.19; in experiment [2] it was 5.46; with A549, 5.02.

As usually defined, the pIC50 is the IC50 on a negative log10 scale, so that one unit is a factor of ten.

These data come from ChEMBL document CHEMBL3421552, “Penicitols A-C and penixanacid A from the mangrove-derived Penicillium chrysogenum HDN11-24” (J Nat Prod, 2015).
